# Data as given in patent US6274715A, “Tricyclic erythromycin derivatives” (priority 1997, dated 2001).
# Tests used:
# Format in all cases: cell-based
# [1] = system: STAPHYLOCOCCUS AUREUS ATCC 6538P; experiment: In vitro antibacterial activity, MIC, BHI agar dilution; settings: S. aureus ATCC 6538P, 35-37° C., 20 to 24 hours, unit assumed
# [2] = system: STAPHYLOCOCCUS AUREUS A5177; experiment: as above; settings: S. aureus A5177, unit assumed
# [3] = system: STAPHYLOCOCCUS AUREUS A-5278; experiment: as above; settings: S. aureus A-5278, unit assumed
# [4] = system: STAPHYLOCOCCUS AUREUS CMX 642A; experiment: as above; settings: S. aureus CMX 642A, unit assumed
# [5] = system: STAPHYLOCOCCUS AUREUS NCTC10649M; experiment: as above; settings: S. aureus NCTC10649M, unit assumed
# [6] = system: STAPHYLOCOCCUS AUREUS CMX 553; experiment: as above; settings: S. aureus CMX 553, unit assumed
# [7] = system: STAPHYLOCOCCUS AUREUS 1775; experiment: as above; settings: S. aureus 1775, unit assumed
# [8] = system: STAPHYLOCOCCUS EPIDERMIDIS 3519; settings: S. epidermidis 3519; BHI agar; unit assumed
# EN[…] ATCC 8043 = experiment: In vitro antibacterial activity, MIC, BHI agar dilution; settings: E. faecium ATCC 8043, unit assumed
# Summary of the method: (§1)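 Agar dilution in BHI: plates inoculated with 1:100 dilutions of organisms (1:10 for Micrococcus and Streptococcus), incubated 20-24 h at 35-37° C, then inspected for the lowest inhibitory concentration against a drug-free growth control.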
# M[…] ATCC 4698 = experiment: as above; settings: M. luteus ATCC 4698, unit assumed
# Summary of the method: as §1
# M[…] ATCC 9341 = experiment: as above; settings: M. luteus ATCC 9341, unit assumed
# Summary of the method: as §1
# STR[…] 508 = experiment: as above; settings: S. agalactiae CMX 508, unit assumed
# Summary of the method: as §1
# [9] = system: STREPTOCOCCUS BOVIS A-5169; experiment: as above; settings: S. bovis A-5169, unit assumed
# [10] = system: STREPTOCOCCUS PYOGENES EES61; experiment: as above; settings: S. pyogenes EES61, unit assumed
# [11] = system: STREPTOCOCCUS PYOGENES 930; experiment: as above; settings: S. pyogenes 930, unit assumed
# [12] = system: STREPTOCOCCUS PYOGENES PIU 2548; experiment: as above; settings: S. pyogenes PIU 2548, unit assumed
# ESCHERICHIA COLI JUHL = settings: E. coli JUHL; BHI agar; unit assumed
# ESCHERICHIA COLI SS = experiment: In vitro antibacterial activity, MIC, BHI agar dilution; settings: E. coli SS, unit assumed
# ESCHERICHIA COLI DC-2 = experiment: as above; settings: E. coli DC-2, unit assumed
# ESCHERICHIA COLI H560 = experiment: as above; settings: E. coli H560, unit assumed
# ESCHERICHIA COLI KNK 437 = settings: E. coli KNK 437; BHI agar; unit assumed
# [13] = system: ENTEROBACTER AEROGENES ATCC 13048; experiment: In vitro antibacterial activity, MIC, BHI agar dilution; settings: E. aerogenes ATCC 13048, unit assumed
# [14] = system: PROVIDENCIA STUARTII CMX 640; settings: P. stuartii CMX 640; BHI agar; unit assumed
# [15] = system: PSEUDOMONAS AERUGINOSA BMH10; experiment: In vitro antibacterial activity, MIC, BHI agar dilution; settings: P. aeruginosa BMH10, unit assumed
# [16] = system: PSEUDOMONAS AERUGINOSA 5007; experiment: as above; settings: P. aeruginosa 5007, unit assumed
# [17] = system: PSEUDOMONAS AERUGINOSA K799/WT; experiment: as above; settings: P. aeruginosa K799/WT, unit assumed
# [18] = system: PSEUDOMONAS AERUGINOSA K799/61; experiment: as above; settings: P. aeruginosa K799/61, unit assumed
# PSEUDOMONAS CEPACIA 296I = experiment: as above; settings: P. cepacia 296I, unit assumed
# [19] = system: ACINETOBACTER CALCOACETICUS CMX 669; experiment: as above; settings: A. calcoaceticus CMX 669, unit assumed
# [20] = system: PSEUDOMONAS AERUGINOSA DPHD-5263; experiment: as above; settings: P. aeruginosa DPHD-5263, unit assumed
# [21] = system: PSEUDOMONAS AERUGINOSA DPHD-2862; experiment: as above; settings: P. aeruginosa DPHD-2862, unit assumed
# CANDIDA ALBICANS CCH 442 = experiment: as above; settings: C. albicans CCH 442, unit assumed
# [22] = system: MYCOBACTERIUM SMEGMATIS ATCC 114; experiment: as above; settings: M. smegmatis ATCC 114, unit assumed
# [23] = system: KLEBSIELLA PNEUMONIAE ATCC 8045; experiment: as above; settings: K. pneumoniae ATCC 8045, unit assumed
SMILES,MIC [1],MIC [2],MIC [3],MIC [4],MIC [5],MIC [6],MIC [7],MIC [8],MIC (EN[…] ATCC 8043),MIC (M[…] ATCC 4698),MIC (M[…] ATCC 9341),MIC (STR[…] 508),MIC [9],MIC [10],MIC (ESCHERICHIA COLI JUHL),MIC (ESCHERICHIA COLI SS),MIC (ESCHERICHIA COLI DC-2),MIC (ESCHERICHIA COLI H560),MIC (ESCHERICHIA COLI KNK 437),MIC [13],other results
CC[C@H]1OC(=O)[C@H](C)C(=O)[C@H](C)[C@@H](O[C@@H]2O[C@H](C)C[C@H](N(C)C)[C@H]2O)[C@](C)(OC)C[C@@H](C)C2=NC[C@H](COCc3ccc(F)cc3)N3C(=O)O[C@@]1(C)[C@H]3[C@H]2C [Example 71],0.1 µg/mL,0.1 µg/mL,> 100 µg/mL,0.1 µg/mL,0.1 µg/mL,0.1 µg/mL,> 100 µg/mL,0.1 µg/mL,0.05 µg/mL,0.1 µg/mL,0.01 µg/mL,0.01 µg/mL,0.02 µg/mL,0.01 µg/mL,25 µg/mL,0.39 µg/mL,12.5 µg/mL,12.5 µg/mL,25 µg/mL,50 µg/mL,MIC [11]: 25 µg/mL; MIC [12]: 0.39 µg/mL; MIC [14]: 100 µg/mL; MIC [15]: 50 µg/mL; MIC [16]: 100 µg/mL; MIC [17]: 100 µg/mL; MIC [18]: 0.78 µg/mL; MIC (PSEUDOMONAS CEPACIA 296I): 25 µg/mL; MIC [19]: 12.5 µg/mL; MIC [20]: > 100 µg/mL; MIC [21]: 100 µg/mL; MIC (CANDIDA ALBICANS CCH 442): > 100 µg/mL; MIC [22]: 0.2 µg/mL
CC[C@H]1OC(=O)[C@H](C)C(=O)[C@H](C)[C@@H](O[C@@H]2O[C@H](C)C[C@H](N(C)C)[C@H]2O)[C@](C)(OC)C[C@@H](C)C2=N[C@H](COCc3ccccn3)CN3C(=O)O[C@@]1(C)[C@H]3[C@H]2C [Example 81],0.39 µg/mL,0.39 µg/mL,> 100 µg/mL,0.39 µg/mL,0.39 µg/mL,0.39 µg/mL,> 100 µg/mL,0.39 µg/mL,0.05 µg/mL,0.39 µg/mL,0.05 µg/mL,0.05 µg/mL,0.05 µg/mL,0.05 µg/mL,> 100 µg/mL,1.56 µg/mL,> 100 µg/mL,50 µg/mL,> 100 µg/mL,> 100 µg/mL,MIC [11]: > 100 µg/mL; MIC [12]: 0.39 µg/mL; MIC [14]: > 100 µg/mL; MIC [15]: > 100 µg/mL; MIC [16]: > 100 µg/mL; MIC [17]: > 100 µg/mL; MIC [18]: 3.1 µg/mL; MIC (PSEUDOMONAS CEPACIA 296I): > 100 µg/mL; MIC [19]: 100 µg/mL; MIC [20]: > 100 µg/mL; MIC [21]: > 100 µg/mL; MIC (CANDIDA ALBICANS CCH 442): > 100 µg/mL; MIC [22]: 3.1 µg/mL
CC[C@H]1OC(=O)[C@H](C)C(=O)[C@H](C)[C@@H](O[C@@H]2O[C@H](C)C[C@H](N(C)C)[C@H]2O)[C@](C)(OC)C[C@@H](C)C2=N[C@H](COCc3cccnc3)CN3C(=O)O[C@@]1(C)[C@H]3[C@H]2C [Example 82],0.39 µg/mL,0.39 µg/mL,> 100 µg/mL,0.39 µg/mL,0.39 µg/mL,0.39 µg/mL,> 100 µg/mL,0.39 µg/mL,0.05 µg/mL,0.39 µg/mL,0.05 µg/mL,0.05 µg/mL,0.05 µg/mL,0.05 µg/mL,> 100 µg/mL,0.78 µg/mL,> 100 µg/mL,> 100 µg/mL,> 100 µg/mL,> 100 µg/mL,MIC [11]: > 100 µg/mL; MIC [12]: 0.39 µg/mL; MIC [14]: > 100 µg/mL; MIC [15]: > 100 µg/mL; MIC [16]: > 100 µg/mL; MIC [17]: > 100 µg/mL; MIC [18]: 3.1 µg/mL; MIC (PSEUDOMONAS CEPACIA 296I): > 100 µg/mL; MIC [19]: > 100 µg/mL; MIC [20]: > 100 µg/mL; MIC [21]: > 100 µg/mL; MIC (CANDIDA ALBICANS CCH 442): > 100 µg/mL; MIC [22]: 3.1 µg/mL
CC[C@H]1OC(=O)[C@H](C)C(=O)[C@H](C)[C@@H](O[C@@H]2O[C@H](C)C[C@H](N(C)C)[C@H]2O)[C@](C)(OC)C[C@@H](C)C2=N[C@H](COCc3ccccc3)CN3C(=O)O[C@@]1(C)[C@H]3[C@H]2C [Example 88],0.39 µg/mL,0.2 µg/mL,> 100 µg/mL,0.39 µg/mL,0.2 µg/mL,0.2 µg/mL,> 100 µg/mL,0.39 µg/mL,0.2 µg/mL,0.2 µg/mL,0.1 µg/mL,0.05 µg/mL,0.02 µg/mL,≤ 0.005 µg/mL,> 100 µg/mL,1.56 µg/mL,> 100 µg/mL,100 µg/mL,> 100 µg/mL,> 100 µg/mL,MIC [23]: > 100 µg/mL; MIC [14]: > 100 µg/mL; MIC [15]: > 100 µg/mL; MIC [16]: > 100 µg/mL; MIC [17]: > 100 µg/mL; MIC [18]: 6.2 µg/mL; MIC (PSEUDOMONAS CEPACIA 296I): 100 µg/mL; MIC [19]: 100 µg/mL; MIC [20]: > 100 µg/mL; MIC [21]: > 100 µg/mL; MIC (CANDIDA ALBICANS CCH 442): > 100 µg/mL; MIC [22]: 0.39 µg/mL
